Experimental data published in US20200275661A1 (published 2020).

| melting point | Compound |
| --- | --- |
| 158 to 159 °C | CC(C)O/N=C/c1cc(OC(c2ccc(F)cn2)c2nnco2)cc2cccnc12 (stereo not shown) |
| 128 to 130 °C | C#CCO/N=C/c1ccnc(C(Oc2cc(F)c3ncccc3c2)c2nnco2)c1 (stereo not shown) |
| 111 to 113 °C | Cn1nnnc1C(Oc1ccc2ncccc2c1)c1ccccc1 (stereo not shown) |
| 155 to 157 °C | c1ccc(C(Oc2ccc3nccnc3c2)c2nnco2)cc1 (stereo not shown) |
| 164 to 166 °C | CO/N=C/c1cc(OC(c2ccc(F)cn2)c2nnco2)cc2cccnc12 (stereo not shown) |
| 136 to 137 °C | Brc1cnc2ccc(OC(c3ccccc3)c3ncco3)cc2c1 (stereo not shown) |
| 176 to 177 °C | [O-][n+]1cccc2cc(OC(c3ccc(F)cn3)c3nnco3)ccc21 (stereo not shown) |
| 168 to 172 °C | Cc1cnc2ccc(OC(c3ccc(C#N)cn3)c3ncco3)cc2c1 (stereo not shown) |
| 149 to 151 °C | c1ccc(C(Oc2ccc3ncccc3c2)c2nncs2)cc1 (stereo not shown) |
| 103 to 107 °C | CCOC(=O)c1coc(C(Oc2ccc3ncccc3c2)c2ccccc2)n1 (stereo not shown) |
| 108 to 110 °C | c1ccc(C(Oc2cnc3ccccc3c2)c2nnco2)cc1 (stereo not shown) |
| 215 °C (dec.) | c1ccc(C(Oc2ccc3ncccc3c2)c2ccco2)cc1 (stereo not shown) |
| 165 to 167 °C | CO/N=C/c1ccnc(C(Oc2cc(Br)c3ncccc3c2)c2nnco2)c1 (stereo not shown) |
| 108 to 110 °C | Cc1cc(C(Oc2ccc3ncccc3c2)c2ccccc2)no1 (stereo not shown) |
| 176 to 182 °C | Fc1ccc(C(Oc2cc(Br)c3ncccc3c2)c2nnco2)nc1 (stereo not shown) |
| 126 to 130 °C | c1ccc(C(Sc2ccc3ncccc3c2)c2nnco2)cc1 (stereo not shown) |
| 115 to 119 °C | Fc1ccc(C(Oc2ccc3ncccc3c2)c2ncon2)nc1 (stereo not shown) |
| 172 to 173 °C | CO/N=C/c1cnc2ccc(OC(c3ccc(F)cn3)c3nnco3)c(Br)c2c1 (stereo not shown) |
| 182 to 184 °C | CCO/N=C/c1cc(OC(c2ccc(F)cn2)c2nnco2)cc2cccnc12 (stereo not shown) |
| 168 to 171 °C | CCO/N=C/c1ccnc(C(Oc2cc(F)c3ncccc3c2)c2nnco2)c1 (stereo not shown) |
| 126 to 128 °C | c1ccc(C(Oc2ccc3ncccc3c2)c2ccon2)cc1 (stereo not shown) |
| 71 to 73 °C | c1ccc(C(Oc2ccc3ncccc3c2)c2ccccn2)cc1 (stereo not shown) |
| 198 to 200 °C | Fc1ccc(C(Oc2cccc3ncccc23)c2nnco2)nc1 (stereo not shown) |
| 112 to 115 °C | CC(C)O/N=C/c1cnc2ccc(OC(c3ccc(F)cn3)c3nnco3)cc2c1 (stereo not shown) |

More lines, now with the values behind:

| Compound | melting point |
| --- | --- |
| Fc1ccc(C(Oc2ccc3ncccc3c2)c2ncno2)nc1 (stereo not shown) | 100 to 104 °C |
| Fc1ccc(C(Oc2ccc3ncccc3c2)c2nncs2)nc1 (stereo not shown) | 92 to 94 °C |
| FC(F)Oc1ccc(C(Oc2ccc3ncccc3c2)c2nncs2)nc1 (stereo not shown) | 60 to 62 °C |
| [O-][n+]1cc(F)ccc1C(Oc1ccc2c(ccc[n+]2[O-])c1)c1nnco1 (stereo not shown) | 224 to 226 °C |
| CC(C)O/N=C/c1ccnc(C(Oc2cc(F)c3ncccc3c2)c2nnco2)c1 (stereo not shown) | 126 to 129 °C |
| CO/N=C/c1cnc2ccc(OC(c3ccc(F)cn3)c3nnco3)cc2c1 (stereo not shown) | 148 to 152 °C |
| Cc1nnc(C(Oc2ccc3ncccc3c2)c2ccccc2)o1 (stereo not shown) | 114 to 116 °C |
| Cc1noc(C(Oc2ccc3ncccc3c2)c2ccc(F)cn2)n1 (stereo not shown) | 79 to 81 °C |
| CO/N=C/c1cnc2ccc(O[C@@H](c3ccc(F)cn3)c3nnco3)cc2c1 | 136 to 137 °C |
| CO/N=C/c1ccnc(C(Oc2cc(F)c3ncccc3c2)c2nnco2)c1 (stereo not shown) | 174 to 177 °C |
| Fc1ccc(C(Oc2cnc3ncccc3c2)c2nnco2)nc1 (stereo not shown) | 154 to 158 °C |
| c1ccc(C(Oc2ccc3ncccc3c2)c2cnco2)cc1 (stereo not shown) | 110 to 113 °C |
| Fc1ccc(C(Oc2ccc3ncccc3c2)c2ncco2)nc1 (stereo not shown) | 104 to 110 °C |
| CC(C)(O)c1coc(C(Oc2ccc3ncccc3c2)c2ccccc2)n1 (stereo not shown) | 130 to 134 °C |
| Fc1ccc(C(Oc2ccc3ncc(/C=N/OCC(F)(F)F)cc3c2)c2nnco2)nc1 (stereo not shown) | 118 to 120 °C |
| Cc1cnc2ccc(OC(c3ccc(Br)cn3)c3ncco3)cc2c1 (stereo not shown) | 136 to 139 °C |
| CSc1cnc2ccc(OC(c3cc(Cl)c(Cl)cn3)c3nnco3)cc2c1 (stereo not shown) | 179 to 181 °C |
| CO/N=C/c1cnc2ccc(O[C@H](c3ccc(F)cn3)c3nnco3)cc2c1 | 136 to 138 °C |
| c1ccc(C(Oc2ccc3ncccc3c2)c2ncon2)cc1 (stereo not shown) | 138 to 140 °C |
| CCO/N=C/c1cnc2ccc(OC(c3ccc(F)cn3)c3nnco3)cc2c1 (stereo not shown) | 130 to 133 °C |
| Clc1ccc(C(Nc2ccc3ncc(Br)cc3c2)c2nnco2)nc1 (stereo not shown) | 214 to 217 °C |
| c1ccc(C(Oc2cc3cccnc3cn2)c2nnco2)cc1 (stereo not shown) | 136 to 139 °C |
| CO/N=C/c1ccnc(C(Oc2cc(Cl)c3ncccc3c2)c2nnco2)c1 (stereo not shown) | 166 to 168 °C |
| Clc1ccc(C(Nc2ccc3ncccc3c2)c2nnco2)cc1 (stereo not shown) | 151 to 152 °C |
| Brc1c(OC(c2ccccc2)c2ncon2)ccc2ncccc12 (stereo not shown) | 53 to 55 °C |
| c1ccc(C(Oc2ccc3ncccc3c2)c2ncco2)cc1 (stereo not shown) | 122 to 124 °C |
| c1ccc(C(Nc2ccc3ncccc3c2)c2nnco2)cc1 (stereo not shown) | 161 to 163 °C |
| Fc1ccc(C(Oc2cc(/C=C/C(F)(F)F)c3ncccc3c2)c2nnco2)nc1 (stereo not shown) | 147 to 150 °C |
